For one compound, Kd results are on record in paper doi:10.1101/2021.02.17.431525v1 (biorxiv, 2021).

In the test the target is GRB2 (growth factor receptor bound protein 2) (Homo sapiens, UniProt P62993). The test is described as follows: biochemical.
GRB2 (growth factor receptor bound protein 2), sequence (P62993 whole entry): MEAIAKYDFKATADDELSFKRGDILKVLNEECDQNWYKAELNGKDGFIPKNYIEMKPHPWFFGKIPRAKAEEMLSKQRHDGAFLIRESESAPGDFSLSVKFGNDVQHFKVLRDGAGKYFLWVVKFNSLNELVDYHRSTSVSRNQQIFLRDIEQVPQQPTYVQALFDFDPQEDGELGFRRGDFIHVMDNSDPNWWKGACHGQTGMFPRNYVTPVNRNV

What is called Kd is the constant that tells how readily two partners part at equilibrium. `CC(C)=CCC[C@](C)(O)[C@H]1CC[C@]2(C)[C@@H]1[C@H](O)C[C@@H]1[C@@]3(C)CC[C@H](O[C@@H]4O[C@H](CO)[C@@H](O)[C@H](O)[C@H]4O[C@@H]4O[C@H](CO)[C@@H](O)[C@H](O)[C@H]4O)C(C)(C)[C@@H]3CC[C@]12C` [ginsenoside Rg3] came in with a Kd of 1530 ± 110 nM.
